From PubChem BioAssay AID1996
In brackets after ≈: the same amount, converted by molar mass.

details: buffer; pH 7.4; 200.0 µM

Compared with Cc1ccccc1NC(=O)CCCN1C(=O)C2CC=CCC2C1=O (stereo not drawn), Cc1ccc(NC(=O)CN2C(=O)S/C(=C\c3ccccn3)C2=O)cc1C is lower in solubility kinetic: > 49 µg/mL for the first, < 0.3 µg/mL for the second.

Cc1nn(C)cc1S(=O)(=O)N1CCCCC1C (stereo not drawn) and Cc1c(C(=O)O)oc2ccc(S(=O)(=O)N3CCCC3)cc12 cannot be ordered by solubility kinetic: > 38.6 µg/mL for the first, > 46.4 µg/mL for the second.

Compared with O=C(Nc1nccs1)c1cn2ccccc2n1, O=C(Nc1nccs1)OCc1ccccc1 is 2.8-fold lower in solubility kinetic: 36.2 µg/mL (≈ 148 µM) for the first, 12.8 µg/mL (≈ 54.6 µM) for the second.

Compared with CCC(=O)N(Cc1cc(=O)[nH]c2ccccc12)c1ccccc1C, COc1ccccc1NC(=O)C(C)N(C)CCOc1ccccc1 (stereo not drawn) is 1.6-fold lower in solubility kinetic: 36.3 µg/mL (≈ 113 µM) for the first, 23.1 µg/mL (≈ 70.3 µM) for the second.

Compared with CN1CCN(c2oc(-c3ccc([N+](=O)[O-])cc3)nc2C#N)CC1, COC(=O)c1ccccc1NC(=O)NN1CCN(C)CC1 is higher in solubility kinetic: 4.1 µg/mL (≈ 13.1 µM) for the first, > 43.9 µg/mL for the second.

Compared with COc1ccc2c(C)cc(SCC(=O)NC3CCCC3)nc2c1, O=C(COC(=O)Cc1ccc(Cl)cc1)NC1CCCC1 is higher in solubility kinetic: 6.6 µg/mL (≈ 20 µM) for the first, > 44.4 µg/mL for the second.

First: C/C(=C/c1ccccc1)C(=O)N1CCN(c2ccc(F)cc2)CC1
Second: Cc1ccccc1C(=O)N1CCN(c2ncccn2)CC1
The solubility kinetic of the first is lower: 36.1 µg/mL (≈ 111 µM) for the first, > 42.4 µg/mL for the second.

Cc1ccc(N)cc1S(=O)(=O)N(C)C and C=CCS(=O)(=O)N1CCCC(N(C)CCc2ccc(OC)c(OC)c2)C1 (stereo not drawn) cannot be ordered by solubility kinetic: > 32.1 µg/mL for the first, 44.4 µg/mL (≈ 116 µM) for the second.

Going from CCOc1ccccc1NC(=O)C(c1ccccc1)N1CCN(CC(=O)N2CCCC2)CC1 (stereo not drawn) to Cc1c(O)ccc(C(=O)CN2CCN(Cc3ccccc3)CC2)c1O, the solubility kinetic falls from > 67.6 µg/mL to 38.1 µg/mL (≈ 112 µM).

First: Cc1cc(NC(=O)C2CC(=O)N(c3ccc(Cl)cc3)C2)no1 (stereo not drawn)
Second: Cc1cc(NC(=O)c2ccc([N+](=O)[O-])cc2Cl)no1
The solubility kinetic of the first is 1.9-fold higher: 31 µg/mL (≈ 97 µM) for the first, 16.3 µg/mL (≈ 57.9 µM) for the second.

O=C1CCN(Cc2ccccc2)C(=O)N1c1ccccc1 and Nc1cc(=O)n(Cc2ccccc2)c(=O)n1-c1ccc(F)cc1 cannot be ordered by solubility kinetic: > 42 µg/mL for the first, > 46.7 µg/mL for the second.

CN(C(=O)/C=C/c1ccccc1)C1CCCCC1 and CCOC(=O)C1CCCN(C(=O)Nc2c(-c3ccccc3)noc2C)C1 (stereo not drawn) are within 1.5-fold of each other in solubility kinetic: 35.1 µg/mL (≈ 144 µM) for the first, 52.4 µg/mL (≈ 147 µM) for the second.

Compared with CC(C)c1ccc(N=Cc2c(O)c3ccccc3oc2=O)cc1, CC1C(=O)Nc2ccccc2N1C(=O)c1ccc(Cl)cc1 (stereo not drawn) is 6.4-fold higher in solubility kinetic: 4.3 µg/mL (≈ 14 µM) for the first, 27.4 µg/mL (≈ 91.1 µM) for the second.

Compared with CN1C(=O)NC(c2ccc(O)cc2)C2=C1CN(c1ccccc1)C2=O (stereo not drawn), Fc1ccc(-n2cc(-c3ccccc3)[n+]3c2SCC3)cc1.[Br-] is higher in solubility kinetic: 7 µg/mL (≈ 20.9 µM) for the first, > 56.6 µg/mL for the second.

Cc1ccc(C(C)C)cc1OCC(=O)NCCCn1ccnc1 and COc1cccc(OC)c1CN(C)C(=O)c1cnccc1C(F)(F)F cannot be ordered by solubility kinetic: > 47.3 µg/mL for the first, > 53.1 µg/mL for the second.

Compared with COc1ccc(CCNc2nc(-c3ccc(O)cc3)cs2)cc1OC, COc1ccc(/C=C/C(=O)O)cc1S(=O)(=O)NCc1cccnc1 is higher in solubility kinetic: 29.2 µg/mL (≈ 81.9 µM) for the first, > 52.3 µg/mL for the second.

First: O=C(CSc1nccc(-c2cccs2)n1)Nc1ccc(F)c(Cl)c1
Second: Cc1cnc(NC(=O)c2ccncc2)s1
The solubility kinetic of the first is 22-fold lower: 1.4 µg/mL (≈ 3.69 µM) for the first, 30.2 µg/mL (≈ 138 µM) for the second.

Compared with CCCN(CCC)C(=O)CC(c1ccccc1)c1ccco1 (stereo not drawn), C=CCOc1ccccc1CN1CCC(Cc2ccccc2)CC1 is lower in solubility kinetic: > 44.9 µg/mL for the first, 31.7 µg/mL (≈ 98.6 µM) for the second.

CCOc1ccc(C(=O)NC(C(=O)N2CCC2)C(C)C)cc1 (stereo not drawn) and CC(C)[C@H](NC(=O)c1ccccc1)C(=O)OCC(=O)NCC1CCCO1 (stereo partly drawn) cannot be ordered by solubility kinetic: > 45.7 µg/mL for the first, > 54.4 µg/mL for the second.

Going from C=CCSc1nc2sc3c(c2c(=O)n1-c1ccc(C)cc1)CCN(C)C3 to CCN1CCN(C(=O)/C=C/c2ccc(OC)cc2)CC1, the solubility kinetic rises from 22.3 µg/mL (≈ 58.1 µM) to > 41.2 µg/mL.

COc1ccc2c(c1)[C@@]13CCC=C[C@H]1[C@@H](C2)NCC3.Cl and CCOC(=O)N1CCN(S(=O)(=O)c2ccc3[nH]c(=O)oc3c2)CC1 cannot be ordered by solubility kinetic: > 43.8 µg/mL for the first, 45.6 µg/mL (≈ 128 µM) for the second.

For [O-][n+]1c2ccccc2[n+]([O-])c2cc(O)ccc21, the solubility kinetic was > 34.2 µg/mL.
